Patent publication US8404643B2, “Metastin derivatives and use thereof” (priority 2005, dated 2013)
Square brackets hold non-standard residues; d marks the D form. Peptide text beside a SMILES is read from it. Arg(Me) = CNC(=N)NCCC[C@H](N)C(=O)O; dDap = NC[C@@H](N)C(=O)O; dNMeA = CN[C@H](C)C(=O)O; Dab = NCC[C@H](N)C(=O)O; azaGly = NNC(=O)O

These molecules were tested against T1, hOT7T175 (Homo sapiens, UniProt Q969F8) (assay: Assay for intracellular Ca ion level-increasing activity using FLIPR). Settings: hOT7T175/CHO cells, relative to Metastin (1-54).
T1 construct: expressed in transfected cells
T1 sequence (Q969F8 whole entry L364H): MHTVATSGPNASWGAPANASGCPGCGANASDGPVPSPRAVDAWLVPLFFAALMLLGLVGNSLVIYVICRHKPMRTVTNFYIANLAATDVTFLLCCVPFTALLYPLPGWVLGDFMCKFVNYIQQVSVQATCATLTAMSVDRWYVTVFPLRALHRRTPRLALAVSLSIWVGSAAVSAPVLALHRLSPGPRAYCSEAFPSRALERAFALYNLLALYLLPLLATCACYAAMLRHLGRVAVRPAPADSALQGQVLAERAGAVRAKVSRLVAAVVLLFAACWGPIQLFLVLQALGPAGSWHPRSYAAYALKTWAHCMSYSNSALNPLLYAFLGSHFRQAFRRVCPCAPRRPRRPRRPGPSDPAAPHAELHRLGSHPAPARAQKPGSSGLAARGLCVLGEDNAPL
Assay type: cell-based
Description: In accordance with the method described in JPA 2000-312590, the intracellular Ca ion level-increasing activity was measured using FLIPR.
The stable expression cell line hOT7T175 was obtained by transfection of the expression plasmid pAK-rOT175 for animal cells into CHO/dhfr^− cells, using CellPhect Transfection Kit (Amersham Pharmacia Biotech, Inc.). First, 240 μL of Buffer A (attached to CellPhect Transfection Kit) was added to 9.6 μg of plasmid DNA dissolved in 240 μL of distilled water followed by stirring. After the mixture was settled for 10 minutes, 480 μL of Buffer B (attached to CellPhect Transfection Kit) was added to the mixture, which was vigorously stirred to form liposomes containing the DNA. Then, 4×10^5 CHO/dhfr^− cells (obtained from ATCC) were inoculated on a 60 mm Petri dish. After culturing the cells in Ham's F-12 medium (Nissui Seiyaku Co., Ltd.) supplemented with 10% fetal bovine serum (BIO WHITTAKER, Inc.) at 37° C. for 2 days in 5% carbon dioxide gas, […] of the liposomes were dropwise added to the cells on the Petri dish. After culturing the cells at 37° C. for 6 hours in 5% carbon dioxide gas, the cells were washed twice with serum-free Ham's F-12 medium and 3 mL of 15% glycerol was added to the cells on the Petri dish followed by treatment for 2 minutes. The cells were again washed twice with serum-free Ham's F-12 medium followed by incubation in Ham's F-12 medium supplemented with 10% fetal bovine serum at 37° C. for 15 hours in 5% carbon dioxide gas. The cells were dispersed by trypsin treatment to recover from the Petri dish. The recovered cells were inoculated on a 6-well plate in 1.25×10^4 cells/well and incubation was initiated at 37° C. in Dulbecco's modified Eagle medium (DMEM) medium (Nissui Seiyaku Co., Ltd.) containing 10% dialyzed fetal bovine serum (JRH BIOSCIENCES, Inc.) in 5% carbon dioxide gas. The plasmid-transfected CHO transformants grew in the medium but the non-transfected cells gradually died, accordingly the medium was exchanged on Days 1 and 2 after the initiation of incubation to remove the cells died. Approximately 20 colonies of the CHO transformants that kept growing on Days 8 to 10 after the incubation were isolated. From the cells in these colonies, cells showing high reactivity with the ligand peptide metastin (hereinafter merely referred to as hOT7T175/CHO) were selected to provide for the following experiment.
The intracellular Ca ion level-increasing activity of the synthetic peptide in hOT7T175/CHO was determined using FLIPR (Molecular Devices, Inc.).
hOT7T175/CHO was subcultured in DMEM supplemented with 10% dialyzed fetal bovine serum (hereinafter abbreviated as dFBS) (hereinafter referred to as 10% dFBS/DMEM) and provided for the experiment. The hOT7T175/CHO was suspended in 10% dFBS-DMEM in 15×10^4 cells/ml. The suspension was inoculated on a 96-well plate for FLIPR (Black Plate Clear Bottom, Coster, Inc.) at 200 μl/well (3.0×10^4 cells/200 μL/well), followed by incubation at 37° C. overnight in a 5% CO2 incubator (hereinafter referred to as the cell plate). Then, 21 ml of HANKS/HBSS (9.8 g of HANKS, 0.35 g of sodium hydrogencarbonate, 20 ml of 1M HEPES; after adjusting the pH to 7.4 with 1N sodium hydroxide, the mixture was sterilized by filtration), 210 μl of 250 mM Probenecid and 210 μl of fetal bovine serum (FBS) (HANKS/HBSS-Probenecid-FBS) were mixed.
Furthermore, 2 vials of Fluo3-AM (50 μg/vial) were dissolved in 21 μL of dimethylsulfoxide and 21 μL of 20% Pluronic acid. The resulting solution was added to and mixed with 10 ml of the HANKS/HBSS-Probenecid-FBS described above. After the culture medium was removed, the mixture was dispensed onto the cell plate in 100 μl each/well, followed by incubation at 37° C. for an hour in a 5% CO2 incubator (pigment loading). The peptide was dissolved in dimethylsulfoxide in 1×10^−3 M. The peptide solution was diluted with HANKS/HBSS containing 2.5 mM Probenecid, 0.2% BSA and 0.1% CHAPS. […]

SMILES | Specific Activity: intracellular Ca ion level-increasing activity [specific activity to Metastin (1-54)]
CNC(=N)NCCC[C@H](NC(=O)[C@H](CC(C)C)NC(=O)NNC(=O)[C@H](Cc1ccccc1)NC(=O)[C@@H](NC(=O)[C@H](CC(N)=O)NC(=O)[C@@H](C)N(C)C(=O)[C@@H](Cc1ccc(O)cc1)NC(C)=O)[C@@H](C)O)C(=O)N[C@@H](Cc1c[nH]c2ccccc12)C(N)=O [Compound No. 732, Ac-D-Tyr-D-NMeAla-Asn-Thr-Phe-AzaGly-Leu-Arg(Me)-Trp-NH2] (Ac-[dY][dNMeA]NTF[azaGly]L[Arg(Me)]W-NH2) | 3.2
CNC(=N)NCCC[C@H](NC(=O)[C@H](CC(C)C)NC(=O)NNC(=O)[C@H](Cc1ccccc1)NC(=O)[C@@H](NC(=O)[C@H](CC(N)=O)NC(=O)[C@@H]1NCCN1C(=O)[C@@H](Cc1ccc(O)cc1)NC(C)=O)[C@@H](C)O)C(=O)N[C@@H](Cc1c[nH]c2ccccc12)C(N)=O [Compound No. 734, Ac-D-Tyr-Izc-Asn-Thr-Phe-AzaGly-Leu-Arg(Me)-Trp-NH2] | 2.3
CNC(=N)NCCC[C@H](NC(=O)[C@H](CC(C)C)NC(=O)NNC(=O)[C@H](Cc1ccccc1)NC(=O)[C@@H](NC(=O)[C@H](CC(N)=O)NC(=O)[C@@H](Cc1cnc[nH]1)NC(=O)[C@@H](Cc1ccc(O)cc1)NC(C)=O)[C@@H](C)O)C(=O)N[C@@H](Cc1c[nH]c2ccccc12)C(N)=O [Compound No. 739, Ac-D-Tyr-D-His-Asn-Thr-Phe-AzaGly-Leu-Arg(Me)-Trp-NH2] (Ac-[dY][dH]NTF[azaGly]L[Arg(Me)]W-NH2) | 1.6
CNC(=N)NCCC[C@H](NC(=O)[C@H](CC(C)C)NC(=O)NNC(=O)[C@H](Cc1ccccc1)NC(=O)[C@@H](NC(=O)[C@H](CCN)NC(=O)[C@@H](Cc1c[nH]c2ccccc12)NC(=O)[C@@H](Cc1ccc(O)cc1)NC(C)=O)[C@@H](C)O)C(=O)N[C@@H](Cc1c[nH]c2ccccc12)C(N)=O [Compound No. 740, Ac-D-Tyr-D-Trp-Dab-Thr-Phe-AzaGly-Leu-Arg(Me)-Trp-NH2] (Ac-[dY][dW][Dab]TF[azaGly]L[Arg(Me)]W-NH2) | 1.1
CNC(=N)NCCC[C@H](NC(=O)[C@H](CC(C)C)NC(=O)NNC(=O)[C@H](Cc1ccccc1)NC(=O)[C@@H](NC(=O)[C@H](CC(N)=O)NC(=O)[C@H](C)NC(=O)[C@@H](Cc1ccc(O)cc1)NC(C)=O)[C@@H](C)O)C(=O)N[C@@H](Cc1c[nH]c2ccccc12)C(N)=O [Compound No. 742, Ac-D-Tyr-Ala-Asn-Thr-Phe-AzaGly-Leu-Arg(Me)-Trp-NH2] (Ac-[dY]ANTF[azaGly]L[Arg(Me)]W-NH2) | 2.3
CNC(=N)NCCC[C@H](NC(=O)[C@H](CC(C)C)NC(=O)NNC(=O)[C@H](Cc1ccccc1)NC(=O)[C@@H](NC(=O)[C@H](CC(N)=O)NC(=O)[C@H](CCCCN)NC(=O)[C@@H](Cc1ccc(O)cc1)NC(C)=O)[C@@H](C)O)C(=O)N[C@@H](Cc1c[nH]c2ccccc12)C(N)=O [Compound No. 745, Ac-D-Tyr-Lys-Asn-Thr-Phe-AzaGly-Leu-Arg(Me)-Trp-NH2] (Ac-[dY]KNTF[azaGly]L[Arg(Me)]W-NH2) | 3.0

Results, then the molecule that gave them:

Specific Activity: intracellular Ca ion level-increasing activity [specific activity to Metastin (1-54)] | SMILES
3.4 | CNC(=N)NCCC[C@H](NC(=O)[C@H](CC(C)C)NC(=O)NNC(=O)[C@H](Cc1ccccc1)NC(=O)[C@@H](NC(=O)[C@H](CC(N)=O)NC(=O)[C@@H](CC(=O)O)NC(=O)[C@@H](Cc1ccc(O)cc1)NC(C)=O)[C@@H](C)O)C(=O)N[C@@H](Cc1c[nH]c2ccccc12)C(N)=O [Compound No. 735, Ac-D-Tyr-D-Asp-Asn-Thr-Phe-AzaGly-Leu-Arg(Me)-Trp-NH2] (Ac-[dY][dD]NTF[azaGly]L[Arg(Me)]W-NH2)
2.4 | CNC(=N)NCCC[C@H](NC(=O)[C@H](CC(C)C)NC(=O)NNC(=O)[C@H](Cc1ccccc1)NC(=O)[C@@H](NC(=O)[C@H](CC(N)=O)NC(=O)[C@@H](CN)NC(=O)[C@@H](Cc1ccc(O)cc1)NC(C)=O)[C@@H](C)O)C(=O)N[C@@H](Cc1c[nH]c2ccccc12)C(N)=O [Compound No. 736, Ac-D-Tyr-D-Dap-Asn-Thr-Phe-AzaGly-Leu-Arg(Me)-Trp-NH2] (Ac-[dY][dDap]NTF[azaGly]L[Arg(Me)]W-NH2)
3.0 | CNC(=N)NCCC[C@H](NC(=O)[C@H](CC(C)C)NC(=O)NNC(=O)[C@H](Cc1ccccc1)NC(=O)[C@@H](NC(=O)[C@H](CC(N)=O)NC(=O)[C@@H](CO)NC(=O)[C@@H](Cc1ccc(O)cc1)NC(C)=O)[C@@H](C)O)C(=O)N[C@@H](Cc1c[nH]c2ccccc12)C(N)=O [Compound No. 737, Ac-D-Tyr-D-Ser-Asn-Thr-Phe-AzaGly-Leu-Arg(Me)-Trp-NH2] (Ac-[dY][dS]NTF[azaGly]L[Arg(Me)]W-NH2)
1.4 | CNC(=N)NCCC[C@H](NC(=O)[C@H](CC(C)C)NC(=O)NNC(=O)[C@H](Cc1ccccc1)NC(=O)[C@@H](NC(=O)[C@H](CC(N)=O)NC(=O)[C@@H](CCC(N)=O)NC(=O)[C@@H](Cc1ccc(O)cc1)NC(C)=O)[C@@H](C)O)C(=O)N[C@@H](Cc1c[nH]c2ccccc12)C(N)=O [Compound No. 738, Ac-D-Tyr-D-Gln-Asn-Thr-Phe-AzaGly-Leu-Arg(Me)-Trp-NH2] (Ac-[dY][dQ]NTF[azaGly]L[Arg(Me)]W-NH2)
3.4 | CNC(=N)NCCC[C@H](NC(=O)[C@H](CC(C)C)NC(=O)NNC(=O)[C@H](Cc1ccccc1)NC(=O)[C@@H](NC(=O)[C@H](CC(N)=O)NC(=O)[C@H](CC(C)C)NC(=O)[C@@H](Cc1ccc(O)cc1)NC(C)=O)[C@@H](C)O)C(=O)N[C@@H](Cc1c[nH]c2ccccc12)C(N)=O [Compound No. 743, Ac-D-Tyr-Leu-Asn-Thr-Phe-AzaGly-Leu-Arg(Me)-Trp-NH2] (Ac-[dY]LNTF[azaGly]L[Arg(Me)]W-NH2)
2.4 | CNC(=N)NCCC[C@H](NC(=O)[C@H](CC(C)C)NC(=O)NNC(=O)[C@H](Cc1ccccc1)NC(=O)[C@@H](NC(=O)[C@H](CC(N)=O)NC(=O)[C@H](CO)NC(=O)[C@@H](Cc1ccc(O)cc1)NC(C)=O)[C@@H](C)O)C(=O)N[C@@H](Cc1c[nH]c2ccccc12)C(N)=O [Compound No. 744, Ac-D-Tyr-Ser-Asn-Thr-Phe-AzaGly-Leu-Arg(Me)-Trp-NH2] (Ac-[dY]SNTF[azaGly]L[Arg(Me)]W-NH2)
2.2 | CNC(=N)NCCC[C@H](NC(=O)[C@H](CC(C)C)NC(=O)NNC(=O)[C@H](Cc1ccccc1)NC(=O)[C@@H](NC(=O)[C@H](CC(N)=O)NC(=O)[C@H](CCC(=O)O)NC(=O)[C@@H](Cc1ccc(O)cc1)NC(C)=O)[C@@H](C)O)C(=O)N[C@@H](Cc1c[nH]c2ccccc12)C(N)=O [Compound No. 746, Ac-D-Tyr-Glu-Asn-Thr-Phe-AzaGly-Leu-Arg(Me)-Trp-NH2] (Ac-[dY]ENTF[azaGly]L[Arg(Me)]W-NH2)
